Source: the NIST ThermoML archive (doi:10.1016/j.fluid.2015.04.017)

Assay: refractive index (Na D-line) (dimensionless); xn = mol fraction of the nth substance listed
Details: 101 kPa, Liquid, Standard Abbe refractometry

CCOC(=O)C(C)O (stereo not drawn) [DL-ethyl lactate] + CCC(C)=O
refractive index
Details	x1 = 0.0999	x1 = 0.1999	x1 = 0.3001	x1 = 0.4001	x1 = 0.5	x1 = 0.5998	x1 = 0.6999	x1 = 0.8	x1 = 0.9001	x1 = 1
288.15 K	1.3864	1.39058	1.39458	1.39808	1.40142	1.40472	1.40745	1.41049	1.41285	1.41571
293.15 K	1.38393	1.38819	1.39209	1.39574	1.39914	1.40234	1.40537	1.40818	1.41078	1.41307
298.15 K	1.38138	1.38566	1.38959	1.3933	1.39673	1.39997	1.40302	1.40585	1.40846	1.41076
303.15 K	1.37882	1.38314	1.38712	1.39082	1.39428	1.39754	1.40061	1.40346	1.4061	1.40843
308.15 K	1.37622	1.38055	1.38457	1.38833	1.39183	1.39511	1.39819	1.40105	1.40371	1.4061
313.15 K	1.37361	1.37791	1.38199	1.38577	1.38931	1.39263	1.39575	1.39864	1.40133	1.40374
318.15 K	1.37092	1.37524	1.37932	1.38316	1.38671	1.39001	1.39312	1.396	1.39886	1.40136
323.15 K	1.36811	1.3724	1.3765	1.38033	1.38393	1.38737	1.39051	1.39348	1.39642	1.39898

CCOC(=O)C(C)O (stereo not drawn) [DL-ethyl lactate] + CN1CCCC1=O
refractive index
Details	x1 = 0.0999	x1 = 0.2	x1 = 0.3001	x1 = 0.4	x1 = 0.4997	x1 = 0.6	x1 = 0.7002	x1 = 0.7999	x1 = 0.8997	x1 = 1
288.15 K	1.46662	1.46071	1.45507	1.44952	1.44392	1.43817	1.43232	1.42648	1.42076	1.41537
293.15 K	1.46449	1.45857	1.4529	1.44734	1.44172	1.43597	1.43014	1.4243	1.41855	1.41307
298.15 K	1.46235	1.45645	1.45078	1.4452	1.43956	1.4338	1.42795	1.42209	1.41631	1.41076
303.15 K	1.46021	1.45431	1.44863	1.44302	1.43738	1.43161	1.42575	1.41988	1.41406	1.40843
308.15 K	1.45809	1.45218	1.44646	1.44084	1.43516	1.42939	1.42354	1.41768	1.41183	1.4061
313.15 K	1.45594	1.45005	1.44428	1.43859	1.43288	1.4271	1.42126	1.41542	1.40957	1.40374
318.15 K	1.45386	1.44796	1.44218	1.43648	1.43073	1.4249	1.41902	1.41312	1.40722	1.40136
323.15 K	1.45178	1.44586	1.44006	1.43431	1.42854	1.42269	1.41679	1.41086	1.40492	1.39898

CCOC(=O)C(C)O (stereo not drawn) [DL-ethyl lactate] + Cc1ccccc1
refractive index
Details	x1 = 0.1001	x1 = 0.2001	x1 = 0.3	x1 = 0.4	x1 = 0.4998	x1 = 0.6001	x1 = 0.7	x1 = 0.7999	x1 = 0.9	x1 = 1
288.15 K	1.48891	1.47943	1.47043	1.46159	1.45318	1.44507	1.43735	1.42997	1.42267	1.41537
293.15 K	1.48604	1.47659	1.46764	1.45886	1.45051	1.44249	1.43485	1.42751	1.42032	1.41307
298.15 K	1.48316	1.47373	1.46482	1.45613	1.44784	1.43988	1.43231	1.42508	1.41794	1.41076
303.15 K	1.4803	1.47091	1.46199	1.45336	1.44515	1.43728	1.4298	1.42263	1.41555	1.40843
308.15 K	1.47745	1.46812	1.45914	1.45069	1.44254	1.43474	1.42731	1.42018	1.41313	1.4061
313.15 K	1.47462	1.46532	1.45628	1.44801	1.4399	1.43218	1.4248	1.41773	1.4107	1.40374
318.15 K	1.47184	1.46262	1.45368	1.44558	1.4376	1.42987	1.42243	1.41531	1.40819	1.40136
323.15 K	1.46909	1.45995	1.45131	1.44313	1.43523	1.42752	1.42006	1.41291	1.40578	1.39898
